# Data as given in US10292998B1, “Compositions and methods for prevention and treatment of eye infections” (priority 2018, dated 2019).
# Tests used:
# [1] = tested on: bacteria on the surface of the eyeball; assay: Bacterial count on the surface of the eyeball after eye drops of PVP-I/NAC combinations; format: in vivo, human; details: NAC alone
# Source text: The combinations were then applied, with one or more drops of the composition, each between 7 and 30 microliters in total volume, applied by syringe to the eye of a patient over a period of between 30 and 180 seconds. […] In comparison, experiments using NAC alone was ineffective in lowering bacterial count.
# [2] = tested on: bacterial and viral infections; assay: Treatment and prevention of eye infections, summary of the experiments; format: in vivo, human
# Source text: Experiments have determined that PVP-I can be mixed with N-acetylcysteine (NAC), preferably in combination with an aqueous solution such as saline or water for improved lubrication, to form a medical eye drop treatment, which has the unexpected result of greatly reducing the bacteria count while simultaneously maintaining the pain at a tolerable level, or in some cases reducing the pain to a non-perceptible level. The active treatment components are preferably mixed by stirring at room temperature (that is, roughly 15-25° C.) and added to an aqueous solution. The PVP-I concentration of the mixture can be as low as 1.25% by volume of the treatment composition without substantially reducing its effectiveness at preventing eye infections of bacterial, viral, and fungal varieties.
# Experiments were performed with differing ratios of PVP-I, NAC, and aqueous solution in combination. The PVP-I percentage by volume was varied between 0.5% and 80%, and the NAC percentage by volume was varied between 0.5% and 10%. The combinations were then applied, with one or more drops of the composition, each between 7 and 30 microliters in total volume, applied by syringe to the eye of a patient over a period of between 30 and 180 seconds.
# An average eye drop contains 35 microliters, but the space between the human eye and the eyelid can only contain, in an average adult human, approximately 7 microliters of liquid. A human instinctively blinks upon addition of an eye drop to the eye, thereby forcing out most of the eye drop. As a result, only a fraction of a first eye drop will remain in the eye to mix with a second eye drop. […] As a result, the composition described above is not achieved.
# [3] = cited from earlier work
# [4] = tested on: bacteria on the eye surface; details: 0.5%-0.7% PVP-I solution by volume dripped into the eye over 30 seconds, repeated every 90 seconds four times; cited from earlier work
# viral conjunctivitis = details: cited from earlier work
Compound,lowering bacterial count [1],treating or preventing infections ([2]; NAC without PVP-I),discomfort ([2]; summary of experiments),treating and preventing bacterial infections ([2]; summary of experiments),treating viral infections ([2]; summary of experiments),tolerability on the eye ([3]; 1.25% or 2.5% PVP-I concentrations),"pain during application ([3]; 10% PVP-I concentration by volume, surface of the eye)",pain on application to the human eye ([3]; PVP-I especially at concentrations greater than 2.5% by volume),reduction of bacteria on the eye surface [4],"treating pre-existing infections, especially viral infections such as viral conjunctivitis (viral conjunctivitis; PVP-I without NAC)","effect on viral conjunctivitis infections (viral conjunctivitis; solution of 1.25% PVP-I by volume without NAC, previous study)"
"CC(=O)N[C@@H](CS)C(=O)O [NAC, N-acetylcysteine]",ineffective,ineffective,–,–,–,–,–,–,–,–,–
Povidone-iodine [PVP-I],–,–,highly uncomfortable,effective,ineffective,tolerable but still highly irritating,intolerable,extreme immediate pain and a continuing burning sensation,99.9%,largely ineffective,no significant effect
